Legend:
[1] = target: 5-hydroxytryptamine receptor 2A (Homo sapiens, UniProt P28223); assay: (§1) Membranes were incubated in a total volume of 200 ul with a fixed concentration of radioligand (final concentration approximately 0.7 nM [3H]-spiperone for D2, 0.5 nM [3H]-spiperone for D3, and 1.1 nM [3H]-ketanserin for 5-HT2A) and ten concentrations of test compound in ranging between 10 uM-0.1 nM for 1 h at RT. At the end of the incubation, the reaction mixtures were filtered on to unifilter 96-well white microplates with bonded GF/C filters.
[2] = target: D(3) dopamine receptor (Homo sapiens, UniProt P35462); assay: as §1
D(3) dopamine receptor, sequence (P35462 whole entry): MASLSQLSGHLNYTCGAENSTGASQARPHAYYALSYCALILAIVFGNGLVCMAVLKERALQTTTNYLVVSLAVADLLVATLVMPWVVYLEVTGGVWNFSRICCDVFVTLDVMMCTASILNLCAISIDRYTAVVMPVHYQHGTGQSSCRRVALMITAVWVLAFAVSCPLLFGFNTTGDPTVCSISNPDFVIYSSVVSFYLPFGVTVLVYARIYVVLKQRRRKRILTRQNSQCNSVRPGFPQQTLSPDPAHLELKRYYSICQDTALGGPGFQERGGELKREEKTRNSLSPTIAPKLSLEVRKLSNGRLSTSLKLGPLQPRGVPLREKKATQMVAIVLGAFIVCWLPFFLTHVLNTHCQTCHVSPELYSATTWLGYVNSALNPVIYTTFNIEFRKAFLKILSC

5-hydroxytryptamine receptor 2A, sequence (P28223 whole entry): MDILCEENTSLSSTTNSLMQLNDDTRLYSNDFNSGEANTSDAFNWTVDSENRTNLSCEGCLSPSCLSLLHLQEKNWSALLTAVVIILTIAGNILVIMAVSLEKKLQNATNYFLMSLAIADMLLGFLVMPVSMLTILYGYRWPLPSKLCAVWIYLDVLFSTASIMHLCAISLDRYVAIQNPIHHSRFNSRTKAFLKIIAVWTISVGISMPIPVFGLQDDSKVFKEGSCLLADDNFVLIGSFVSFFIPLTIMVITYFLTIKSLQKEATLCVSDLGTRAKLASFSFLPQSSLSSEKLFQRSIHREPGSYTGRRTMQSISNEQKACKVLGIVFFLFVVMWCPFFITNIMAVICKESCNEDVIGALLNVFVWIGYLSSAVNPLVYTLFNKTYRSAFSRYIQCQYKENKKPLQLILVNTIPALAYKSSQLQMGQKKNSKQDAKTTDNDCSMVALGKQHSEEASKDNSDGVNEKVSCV

SMILES | Ki [1] | Ki [2]
O=S(=O)(N[C@H]1CC[C@H](CCN2CCC(c3noc4cc(F)ccc34)CC2)CC1)c1cccnc1 | 2.48 nM | 1.95 nM
COCCC(=O)N[C@H]1CC[C@H](CCN2CCC(c3noc4ccc(F)cc34)CC2)CC1 | 37 nM | 3.1 nM
O=C(N[C@H]1CC[C@H](CCN2CCC(c3noc4cc(F)ccc34)CC2)CC1)c1ccc2c(c1)OCO2 | 1.71 nM | 2.75 nM

From ChEMBL document CHEMBL3886245, “Dual modulators of 5HT2A and D3 receptors” (2014)
